Results: ChEMBL document CHEMBL3098024, “Synthesis, molecular modeling and biological evaluation of N-benzylidene-2-((5-(pyridin-4-yl)-1,3,4-oxadiazol-2-yl)thio)acetohydrazide derivatives as potential anticancer agents” (Bioorg Med Chem, 2014)

What was measured:
[1] = Cytotoxicity against human SW1116 cells after 48 hrs by MTT assay; assay type: functional, cell-based; conditions: SW 1116, 48 h
MCF7 = assay: Cytotoxicity against human MCF7 cells after 48 hrs by MTT assay; assay type: functional, cell-based; conditions: MCF7, 48 h
[2] = Cytotoxicity against human BGC823 cells after 48 hrs by MTT assay; assay type: functional, cell-based; conditions: BGC-823, 48 h
NIH3T3 = assay: Cytotoxicity against mouse NIH/3T3 cells after 24 hrs by MTT assay; assay type: ADME, cell-based; conditions: NIH3T3, 24 h
[3] = Inhibition of telomerase in human SW1116 cells after 24 hrs by TRAP-PCR-ELISA assay; assay type: cell-based; conditions: sw 1116
HepG2 = assay: Cytotoxicity against human HepG2 cells after 48 hrs by MTT assay; assay type: functional, cell-based; conditions: HepG2, 48 h

Row | Structure (SMILES) | IC50 [1] [µM] | IC50 (MCF7) [µM] | IC50 [2] [µM] | IC50 (NIH3T3) [µM] | IC50 [3] [µM] | pIC50 [3] | IC50 (HepG2) [µM]
1 | O=C(CSc1nnc(-c2ccncc2)o1)N/N=C/c1ccc(Br)cc1 | 21.3 | 19.1 | 24.5 | 169 | 12.4 | 4.91 | 18.6
2 | O=C(CSc1nnc(-c2ccncc2)o1)N/N=C/c1ccco1 | 18.8 | 16.6 | 25.8 | 175 | 9.63 | 5.02 | 12.5
3 | COc1ccc(/C=N/NC(=O)CSc2nnc(-c3ccncc3)o2)cc1 | 20.3 | 17.6 | 19.8 | 132 | 9.04 | 5.04 | 15.8
4 | O=C(CSc1nnc(-c2ccncc2)o1)N/N=C/c1ccccc1[N+](=O)[O-] | 30.7 | 35.6 | 41.6 | 214 | 18.2 | 4.74 | 24.7
5 | O=C(CSc1nnc(-c2ccncc2)o1)N/N=C/c1ccccc1 | 16.7 | 14.6 | 22.1 | 167 | 9.72 | 5.01 | 17.3
6 | O=C(CSc1nnc(-c2ccncc2)o1)N/N=C/c1ccccc1O | 7.38 | 4.75 | 6.16 | 155 | 3.97 | 5.4 | 3.51
7 | NNC(=O)CSc1nnc(-c2ccncc2)o1 | 3.26 | 3.26 | 3.26 |  |  |  | 3.26
8 | O=C(CSc1nnc(-c2ccncc2)o1)N/N=C/C=C/c1ccccc1 | 14.9 | 10.8 | 10.6 | 160 | 6.57 | 5.18 | 7.42
9 | O=C(CSc1nnc(-c2ccncc2)o1)N/N=C/c1ccc(O)c(O)c1 | 1.54 | 0.91 | 1.26 | 154 | 1.18 | 5.93 | 0.76
10 | COc1cc(/C=N/NC(=O)CSc2nnc(-c3ccncc3)o2)ccc1O | 3.59 | 3.78 | 4.32 | 148 | 2.89 | 5.54 | 2.92
11 | O=C(CSc1nnc(-c2ccncc2)o1)N/N=C/c1cccc(F)c1 | 26.7 | 24.9 | 27.5 | 205 | 15.7 | 4.8 | 19.4
12 | O=C(CSc1nnc(-c2ccncc2)o1)N/N=C/c1ccc(Cl)cc1Cl | 28.9 | 27.9 | 35.6 | 221 | 17.8 | 4.75 | 18.6
13 | O=C(CSc1nnc(-c2ccncc2)o1)N/N=C/c1ccc(Cl)cc1 | 17 | 15.3 | 20.5 | 181 | 11.9 | 4.93 | 15.7
14 | O=C(CSc1nnc(-c2ccncc2)o1)N/N=C/c1cc(Cl)ccc1O | 5.24 | 5.83 | 5.47 | 166 | 3.13 | 5.5 | 3.97
15 | O=C(CSc1nnc(-c2ccncc2)o1)N/N=C/c1cccc(C(F)(F)F)c1 | 14.9 | 14.6 | 13 | 169 | 5.18 | 5.29 | 6.52
16 | O=c1[nH]cc(F)c(=O)[nH]1 [FLUOROURACIL] | 5.26 | 9.79 | 7.48 |  |  |  | 7.43
17 | O=C(CSc1nnc(-c2ccncc2)o1)N/N=C/c1ccccc1F | 21.5 | 21.8 | 24 | 142 | 14.6 | 4.84 | 16
18 | O=C(CSc1nnc(-c2ccncc2)o1)N/N=C/c1cc(Br)ccc1O | 8.15 | 7.77 | 9.59 | 156 | 4.28 | 5.37 | 6.49
19 | Cc1ccc(/C=N/NC(=O)CSc2nnc(-c3ccncc3)o2)cc1 | 16.8 | 14.7 | 21.8 | 185 | 8.51 | 5.07 | 10
20 | CC[n+]1c(-c2ccccc2)c2cc(N)ccc2c2ccc(N)cc21 [HOMIDIUM BROMIDE] |  |  |  | 135 | 2.71 |  | 
21 | COc1cccc(/C=N/NC(=O)CSc2nnc(-c3ccncc3)o2)c1 | 16.5 | 13.8 | 15.8 | 179 | 7.54 | 5.12 | 9.17
22 | O=C(CSc1nnc(-c2ccncc2)o1)N/N=C/c1cc(Cl)cc(Cl)c1O | 5.03 | 5.92 | 6.34 | 171 | 4.8 | 5.32 | 3.26
23 | O=C(CSc1nnc(-c2ccncc2)o1)N/N=C/c1cc(Br)cc(Br)c1O | 8.57 | 9.01 | 9.61 | 190 | 7.12 | 5.15 | 6.54
24 | O=C(CSc1nnc(-c2ccncc2)o1)N/N=C/c1cccs1 | 24.9 | 23.5 | 26.7 | 189 | 13.5 | 4.87 | 14.9
25 | O=C(CSc1nnc(-c2ccncc2)o1)N/N=C/c1ccc(O)cc1 | 12.2 | 11.7 | 7.94 | 158 | 5.36 | 5.27 | 5.51
26 | O=C(CSc1nnc(-c2ccncc2)o1)N/N=C/c1ccc([N+](=O)[O-])cc1 | 25.8 | 31.8 | 31.5 | 195 | 16.7 | 4.78 | 17.9
27 | O=C(CSc1nnc(-c2ccncc2)o1)N/N=C/c1ccc(F)cc1 | 15.7 | 13.5 | 17.8 | 170 | 10.2 | 4.99 | 12.3
